This note sets out measurements from US11376249B2 (priority 2017, dated 2022).

The structures appear in SMILES notation.

Data set [1] in a line: Mouse marble-burying study (OCD model). In kind it is in vivo, mice. As to conditions: 20 mg/kg intraperitoneal just prior to test. From the text:
The marble burying test is used to measure repetitive and anxiety-related behavior in rodents. It is based on the observation that rats and mice will bury either harmful or harmless objects in their bedding, and it has been used as an animal model to measure the effect of pharmacological interventions in treatment of repetitive behavior disorders, such as OCD.
MPEP is a selective mGluR5 glutamate receptor antagonist. […] Mice in groups (1) are orally administered the vehicle, and mice in group (4) are given an intraperitoneal injection of MPEP just prior to the start of the test.
The test is conducted in rectangular cages with 4-5 cm of wood chip bedding in a room with the window shades lowered and the door closed to minimize distractions. Fifteen clean marbles are evenly spaced on top of the bedding in three rows of five marbles. One mouse is placed in each cage. The mouse and cage is left undisturbed for 30 minutes. At the end of the test, the mouse is removed and the number of marbles buried to at least ⅔ of their depth is counted.

Data set [2] concerns 5-HT2 receptor. Further details: species or system mice. As to conditions: mouse, in vivo, po.
Data set [3] in a line: Rat tolerance/dependence study (28 day).
The subject of data set [4] is GluR1 phosphorylation at Ser845. Put plainly: CNS phosphoprotein profile, GluR1. In kind it is in vivo, mice. As to conditions: 3 mg/kg, nucleus accumbens. The protocol: (§1) A comprehensive molecular phosphorylation study is also carried out to examine the central nervous system (CNS) profile of the compounds of Example 1 and Example 3. The extent of protein phosphorylation for selected key central nervous system proteins is measured in mice nucleus accumbens.
(§2) Mice were killed 30 minutes to 2 hours post-injection by focused microwave cranial irradiation, which preserves brain phosphoprotein as it exists at the time of death. The nucleus accumbens was then dissected from each mouse brain, sliced and frozen in liquid nitrogen. Samples were further prepared for phosphoprotein analysis via SDS-PAGE electrophoresis followed by phosphoprotein-specific immunoblotting, as described in Zhu H, et al., Brain Res. 2010 Jun. 25; 1342:11-23. Phosphorylation at each site was quantified, normalized to total levels of the protein (non-phosphorylated), and expressed as percent of the level of phosphorylation in vehicle-treated control mice.

Data set [5] concerns NR2B phosphorylation at Tyr1472. As to the kind of experiment: CNS phosphoprotein profile, NR2B. As to conditions: 3 mg/kg, 30-60 minutes, nucleus accumbens. It counts as in vivo, mice. The protocol: as §1, §2
The target of data set [6] is D2 (Homo sapiens, UniProt P14416). As to the kind of experiment: biochemical. As to conditions: read-out: inhibition D2.
Data set [7] deals with ERK2 phosphorylation at Thr183 and Tyr185. Put plainly: CNS phosphoprotein profile, ERK2. In kind it is in vivo, mice. As to conditions: 3 mg/kg, nucleus accumbens. On the procedure:
as §1, §2

Data set [8] relates to tyrosine hydroxylase phosphorylation at Ser40. Put plainly: CNS phosphoprotein profile, TH. It counts as in vivo, mice. As to conditions: 3 mg/kg, 30 or 60 minutes, nucleus accumbens. The protocol:
as §1, §2

For data set [9], the target named is D1 (Homo sapiens, UniProt P21728). Put plainly: biochemical. As to conditions: read-out: inhibition D1.
Data set [10] concerns the target Mu opiate receptor (Homo sapiens, UniProt P35372). In kind it is binding.

Sequence of D2 (P14416 whole entry): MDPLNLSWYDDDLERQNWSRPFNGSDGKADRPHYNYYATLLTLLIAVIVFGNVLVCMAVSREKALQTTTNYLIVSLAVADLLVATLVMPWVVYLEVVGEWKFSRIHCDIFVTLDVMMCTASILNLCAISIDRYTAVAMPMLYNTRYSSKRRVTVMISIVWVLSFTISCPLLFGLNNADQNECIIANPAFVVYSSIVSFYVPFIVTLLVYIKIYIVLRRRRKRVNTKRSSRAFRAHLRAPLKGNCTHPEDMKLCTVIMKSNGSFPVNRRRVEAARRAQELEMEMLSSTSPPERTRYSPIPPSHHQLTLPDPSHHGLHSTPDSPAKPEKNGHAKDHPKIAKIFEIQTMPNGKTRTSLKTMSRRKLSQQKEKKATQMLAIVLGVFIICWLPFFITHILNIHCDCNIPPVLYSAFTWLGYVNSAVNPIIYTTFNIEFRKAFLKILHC
Sequence of Mu opiate receptor (P35372 whole entry): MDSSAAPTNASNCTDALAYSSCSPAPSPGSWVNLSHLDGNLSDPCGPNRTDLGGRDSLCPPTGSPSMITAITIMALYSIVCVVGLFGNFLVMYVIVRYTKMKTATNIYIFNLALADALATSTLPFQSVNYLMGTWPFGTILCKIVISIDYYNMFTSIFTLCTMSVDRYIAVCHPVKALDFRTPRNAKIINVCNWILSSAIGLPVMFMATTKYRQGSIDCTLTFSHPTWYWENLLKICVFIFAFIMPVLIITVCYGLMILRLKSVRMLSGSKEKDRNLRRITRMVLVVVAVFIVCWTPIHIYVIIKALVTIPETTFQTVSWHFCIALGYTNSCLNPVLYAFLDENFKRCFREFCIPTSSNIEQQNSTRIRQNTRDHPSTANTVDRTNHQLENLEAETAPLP
Sequence of D1 (P21728 whole entry): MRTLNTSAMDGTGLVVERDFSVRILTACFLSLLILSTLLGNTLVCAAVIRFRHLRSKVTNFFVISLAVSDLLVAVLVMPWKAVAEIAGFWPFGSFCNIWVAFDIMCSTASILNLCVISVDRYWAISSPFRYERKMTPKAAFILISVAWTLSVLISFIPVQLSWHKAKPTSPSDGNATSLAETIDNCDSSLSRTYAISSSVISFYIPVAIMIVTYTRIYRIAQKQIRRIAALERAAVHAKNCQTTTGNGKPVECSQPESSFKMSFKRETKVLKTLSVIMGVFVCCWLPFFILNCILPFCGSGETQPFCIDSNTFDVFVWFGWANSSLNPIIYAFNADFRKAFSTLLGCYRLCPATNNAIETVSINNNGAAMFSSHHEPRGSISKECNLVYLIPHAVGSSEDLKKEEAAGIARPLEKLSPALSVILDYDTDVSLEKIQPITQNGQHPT

As to `Cc1cccc(C#Cc2ccccc2)n1` [MPEP, 2-methyl-6-(phenylethynyl)pyridine], the “Marbles Buried” value in data set [1] is 0.2.

Take `CN1CCN2c3c(cccc31)[C@@H]1CN(CCCC(O)c3ccc(F)cc3)CC[C@@H]12` (stereo partly shown) [Formula B, reference compound]: in data set [2], the “EC50 for reducing DOI-induced head twitches” value amounted to 0.31 mg/kg.

For the molecule `O=C1CN2c3c(cccc3[C@@H]3CN(CCCOc4ccc(F)cc4)CC[C@@H]32)N1` [Example 3, (6bR,10aS)-8-(3-(4-fluorophenoxy)propyl)-6b,7,8,9,10,10a-hexahydro-1H-pyrido[3′,4′:4,5]pyrrolo[1,2,3-de]quinoxalin-2(3H)-one], in data set [2], the “EC50 for reducing DOI-induced head twitches” value is listed as 0.44 mg/kg. The “predominant behavioral and physical effects” value in data set [3] (0.3 mg/kg, dosing phase) was “hunched posture, Straub tail and piloerection”. The tolerance result in data set [3] (0.3 and 3 mg/kg s.c., 28 days) is given as “does not produce tolerance”. In addition, the “effect on body weight, food and water intake or body temperature” value in data set [3] (0.3 and 3 mg/kg s.c., on-dose or withdrawal phase) is given as “no significant effect”.

The term inhibition denotes the change of the read-out against control, counted positive when it falls. With `O=C1CN2c3c(cccc3[C@@H]3CN(CCCC(=O)c4ccc(F)cc4)CC[C@@H]32)N1` [Example 1, 4-((6bR,10aS)-2-oxo-2,3,6b,9,10,10a-hexahydro-1H,7H-pyrido[3′,4′:4,5]pyrrolo[1,2,3-de]quinoxalin-8-yl)-1-(4-fluoro-phenyl)-butan-1-one], the “GluR1 phosphorylation at Ser845” value in data set [4] was “slight increase”. In addition, the “EC50 for reducing DOI-induced head twitches” value in data set [2] is reported as 0.23 mg/kg. For the same molecule, the “effect on NR2B phosphorylation at Tyr1472” value in data set [5] was “neither the compound of Example 1 nor of Example 3 has a significant effect”. In [6], the inhibition at […] came out at 47%. For the same molecule, in data set [7], the “ERK2 phosphorylation at Thr183 and Tyr185” value is listed as “slight decrease”. In addition, in data set [8], the “effect on tyrosine hydroxylase phosphorylation at Ser40” value was “neither the compound of Example 1 nor of Example 3 has a significant effect”.

As to `O=C1CN2c3c(cccc3[C@@H]3CN(CCCC(O)c4ccc(F)cc4)CC[C@@H]32)N1` (stereo partly drawn) [Example 2, 4-((6bR,10aS)-2-oxo-2,3,6b,9,10,10a-hexahydro-1H,7H-pyrido[3′,4′:4,5]pyrrolo[1,2,3-de]quinoxalin-8-yl)-1-(4-fluoro-phenyl)-butan-1-ol], the inhibition at 0.1 µM in data set [9] is 13%. Further, the inhibition at […] in [6] was 11%.

Take `CN1CC[C@]23c4c5ccc(O)c4O[C@H]2[C@@H](O)C=C[C@H]3[C@H]1C5` [Morphine, reference compound]: the tolerance and dependence entry in data set [3] (30 mg/kg orally twice per day) was “clear signs of tolerance and dependence”.

On to `CN1CCN2c3c(cccc31)[C@@H]1CN(CCCC(=O)c3ccc(F)cc3)CC[C@@H]12` [Formula A, reference compound], for which, in [10], the “activity at the Mu opiate receptor” value is listed as “not active”.
